Assay [1] has as its system false cleavers. As to the kind of experiment: Test Example 5: herbicidal effect by foliage application, plastic box (Table 20, symbol Q). In kind it is in vivo, false cleavers (Galium spurium). The settings on record: foliage application, 320 g/ha. In outline:
(§1)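 Sow seeds spot-wise in sterilized diluvial soil; cover with ~1.5 cm soil. Grow 14 days in greenhouse, 25° C. to 30° C. Spray foliage with emulsion diluted to predetermined amount. Rate effect after 3 weeks.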

The subject of assay [2] is rice flat sedge. As to the kind of experiment: Test Example 3: herbicidal effect by foliage application, Wagner pot (Table 18, symbol E). Format: in vivo, rice flat sedge (Cyperus iria). In outline: (§2)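 Plants were sown in alluvial soil held under 0.1–0.5 cm standing water and grown 14 days in a greenhouse at 25–30 °C. An emulsifiable formulation, water-diluted to the set dose, was then sprayed onto the foliage, and effects were scored three weeks later using previously defined criteria.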

Assay [3] relates to velvetleaf. The assay can be described thus: Test Example 5: herbicidal effect by foliage application, plastic box (Table 20, symbol M). In kind it is in vivo, velvetleaf (Abutilon theophrasti). The settings on record: foliage application, 320 g/ha. The gist of the method: as §1
Assay [4] has as its system Japanese bulrush. The assay can be described thus: Test Example 2: herbicidal activity, application during weed generation under submerged conditions (Table 17, symbol B). In kind it is in vivo, Japanese bulrush (Schoenoplectus juncoides). Particulars: AAH 320 g/ha; application during weed generation, submerged conditions. The gist of the method:
(§3)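 Herbicide emulsion, diluted with water to the chosen amount, is applied onto 4 cm floodwater over alluvial soil where the weeds were co-sown and raised at 25–30° C. Application timing: 1–2 leaves. Assessment: three weeks afterwards.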

Assay [5] relates to windgrass. As to the kind of experiment: Test Example 5: herbicidal effect by foliage application, plastic box (Table 20, symbol L). Format: in vivo, windgrass (Apera spica-venti). The settings on record: foliage application, 320 g/ha, evaluated three weeks after application. In outline: as §1
Assay [6] has as its system oval-leafed pondweed. As to the kind of experiment: Test Example 2: herbicidal activity, application during weed generation under submerged conditions (Table 17, symbol C). Format: in vivo, oval-leafed pondweed (Monochoria vaginalis). Particulars: AAH 320 g/ha; application during weed generation, submerged conditions. The gist of the method: as §3
Assay [7] has as its system wild oat. The assay can be described thus: Test Example 5: herbicidal effect by foliage application, plastic box (Table 20, symbol I). In kind it is in vivo, wild oat (Avena fatua). Particulars: foliage application, 320 g/ha. In outline: as §1
In assay [8] the test system is barnyard grass. The assay can be described thus: Test Example 3: herbicidal effect by foliage application, Wagner pot (Table 18, symbol H). In kind it is in vivo, barnyard grass (Echinochloa crus-galli). The gist of the method:
as §2

The test system of assay [9] is Italian ryegrass. The assay can be described thus: Test Example 5: herbicidal effect by foliage application, plastic box (Table 20, symbol K). In kind it is in vivo, Italian ryegrass (Lolium multiflorum). Particulars: foliage application, 320 g/ha. In outline: as §1
Assay [10] deals with southern crabgrass. As to the kind of experiment: Test Example 5: herbicidal effect by foliage application, plastic box (Table 20, symbol F). Format: in vivo, southern crabgrass (Digitaria ciliaris). The settings on record: foliage application, 320 g/ha. In outline: as §1
In assay [11] the test system is chickweed. The assay can be described thus: Test Example 5: herbicidal effect by foliage application, plastic box (Table 20, symbol P). Format: in vivo, common chickweed (Stellaria media). The settings on record: foliage application, 320 g/ha. The gist of the method: as §1
For assay [12], the system named is late watergrass. As to the kind of experiment: Test Example 2: herbicidal activity, application during weed generation under submerged conditions (Table 17, symbol A). The settings on record: AAH 320 g/ha; application during weed generation, submerged conditions. Format: in vivo, late watergrass (Echinochloa oryzicola). The gist of the method: as §3
Assay [13] relates to persian speedwell. As to the kind of experiment: Test Example 5: herbicidal effect by foliage application, plastic box (Table 20, symbol R). Format: in vivo, Persian speedwell (Veronica persica). The settings on record: foliage application, 320 g/ha. The gist of the method:
as §1

For assay [14], the system named is lambsquarters. As to the kind of experiment: Test Example 5: herbicidal effect by foliage application, plastic box (Table 20, symbol O). In kind it is in vivo, lambsquarters (Chenopodium album). Particulars: foliage application, 320 g/ha. In outline: as §1
The subject of assay [15] is redroot pigweed. The assay can be described thus: Test Example 5: herbicidal effect by foliage application, plastic box (Table 20, symbol N). The settings on record: foliage application, 320 g/ha, evaluated three weeks after application. In kind it is in vivo, redroot pigweed (Amaranthus retroflexus). In outline: as §1
Assay [16] deals with barnyard grass. The assay can be described thus: Test Example 5: herbicidal effect by foliage application, plastic box (Table 20, symbol H). In kind it is in vivo, barnyard grass (Echinochloa crus-galli). Particulars: foliage application, 320 g/ha. In outline: as §1
Assay [17] deals with blackgrass. As to the kind of experiment: Test Example 5: herbicidal effect by foliage application, plastic box (Table 20, symbol J). Format: in vivo, blackgrass (Alopecurus myosuroides). Particulars: foliage application, 320 g/ha. The gist of the method:
as §1

Assay [18] has as its system Chinese sprangletop. The assay can be described thus: Test Example 3: herbicidal effect by foliage application, Wagner pot (Table 18, symbol D). In kind it is in vivo, chinese sprangletop (Leptochloa chinensis). In outline:
as §2

The subject of assay [19] is green foxtail. As to the kind of experiment: Test Example 5: herbicidal effect by foliage application, plastic box (Table 20, symbol G). In kind it is in vivo, green foxtail (Setaria viridis). Particulars: foliage application, 320 g/ha. In outline:
as §1

Assay [20] deals with oval-leafed pondweed. The assay can be described thus: Test Example 1: herbicidal activity, application before weed generation under submerged conditions (Table 16, symbol C). In kind it is in vivo, oval-leafed pondweed (Monochoria vaginalis). The settings on record: amount of applied herbicide 320 g/ha. The gist of the method: (§4)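 Submerged Wagner pots (alluvial soil, 4 cm water) sown with weed seeds and planted with 2.5-leaf rice seedlings; emulsifiable concentrate diluted in water applied to water surface on sowing day. Held in greenhouse at 25-30 °C; injury scored 0-5 by herbicidal rate after three weeks.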

Assay [21] deals with late watergrass. As to the kind of experiment: Test Example 1: herbicidal activity, application before weed generation under submerged conditions (Table 16, symbol A). The settings on record: amount of applied herbicide 320 g/ha. In kind it is in vivo, late watergrass (Echinochloa oryzicola). The gist of the method:
as §4

In assay [22] the test system is Japanese bulrush. The assay can be described thus: Test Example 1: herbicidal activity, application before weed generation under submerged conditions (Table 16, symbol B). Format: in vivo, Japanese bulrush (Schoenoplectus juncoides). The settings on record: amount of applied herbicide 320 g/ha. In outline:
as §4

The mark [23] stands for this setting: evaluated three weeks after application.
Where [24] appears, read: amount of applied herbicide 320 g/ha.

For the compound `CCCC(=O)Oc1c(C)nn(C)c(=O)c1-c1c(-c2c(OC)cccc2OC)sc2ccc(Cl)cc12` [2-122], the “herbicidal effect on Q: false cleavers” value in [1] (setting [23]) is on record as 0 (Herbicidal rate of 5% or less (almost no effect)). Besides, in [2] (setting [24]), the “herbicidal effect on E: rice flat sedge” value was 0 (Herbicidal rate of 5% or less (almost no effect)). In addition, in assay [3] (setting [23]), the “herbicidal effect on M: velvetleaf” value is recorded as 0 (Herbicidal rate of 5% or less (almost no effect)). Also, the “herbicidal effect rating, B: Japanese bulrush” value in assay [4] is recorded as 0 (Herbicidal rate of 5% or less (almost no effect)). For the same compound, in assay [5], the “herbicidal effect on L: windgrass” value is on record as 0 (Herbicidal rate of 5% or less (almost no effect)). Besides, in [6], the “herbicidal effect rating, C: oval-leafed pondweed” value is 2 (Herbicidal rate of 20% or more and less than 40%). Further, the “herbicidal effect on I: wild oat” value in assay [7] (setting [23]) was 0 (Herbicidal rate of 5% or less (almost no effect)). Moreover, the “herbicidal effect on H: barnyard grass” value in assay [8] (setting [24]) is 2 (Herbicidal rate of 20% or more and less than 40%); in assay [16] (setting [23]) it was 0 (Herbicidal rate of 5% or less (almost no effect)). In addition, in assay [9] (setting [23]), the “herbicidal effect on K: Italian ryegrass” value is 0 (Herbicidal rate of 5% or less (almost no effect)). For the same compound, the “herbicidal effect on F: southern crabgrass” value in assay [10] (setting [23]) is 0 (Herbicidal rate of 5% or less (almost no effect)). Besides, the “herbicidal effect on P: chickweed” value in assay [11] (setting [23]) was 3 (Herbicidal rate of 40% or more and less than 70%). In addition, the “herbicidal effect rating, A: late watergrass” value in assay [12] is reported as 0 (Herbicidal rate of 5% or less (almost no effect)). For the same compound, the “herbicidal effect on R: persian speedwell” value in [13] (setting [23]) was 1 (Herbicidal rate of 5% or more and less than 20%). The “herbicidal effect on O: lambsquarters” value in [14] (setting [23]) is listed as 0 (Herbicidal rate of 5% or less (almost no effect)). In addition, in assay [15], the “herbicidal effect on N: redroot pigweed” value is 0 (Herbicidal rate of 5% or less (almost no effect)). In [17] (setting [23]), the “herbicidal effect on J: blackgrass” value is 0 (Herbicidal rate of 5% or less (almost no effect)). Moreover, the “herbicidal effect on D: Chinese sprangletop” value in assay [18] (setting [24]) is 0 (Herbicidal rate of 5% or less (almost no effect)). The “herbicidal effect on G: green foxtail” value in assay [19] (setting [23]) is 0 (Herbicidal rate of 5% or less (almost no effect)).
Take `CCCC(=O)Oc1c(C)nn(C)c(=O)c1-c1c(-c2ccc(F)cc2OC)sc2cc(C)ccc12` [3-056]: the “Q: false cleavers, herbicidal effect grade” value in assay [1] (three weeks after application) is 4 (Herbicidal rate of 70% or more and less than 90%). Moreover, in [2] (320 g/ha), the “herbicidal effect on rice flat sedge (E)” value is 3 (Herbicidal rate of 40% or more and less than 70%). In addition, the “M: velvetleaf, herbicidal effect grade” value in assay [3] (three weeks after application) is 2 (Herbicidal rate of 20% or more and less than 40%). The “herbicidal effect rating, B: Japanese bulrush” value in assay [4] is 0 (Herbicidal rate of 5% or less (almost no effect)). Further, the “herbicidal effect rating, C: oval-leafed pondweed” value in assay [6] is 0 (Herbicidal rate of 5% or less (almost no effect)). The “I: wild oat, herbicidal effect grade” value in assay [7] (three weeks after application) is 3 (Herbicidal rate of 40% or more and less than 70%). In assay [8] (320 g/ha), the “herbicidal effect on barnyard grass (H)” value is 3 (Herbicidal rate of 40% or more and less than 70%). Also, the “K: Italian ryegrass, herbicidal effect grade” value in [9] (three weeks after application) was 3 (Herbicidal rate of 40% or more and less than 70%). In addition, the “Herbicidal effect, C: oval-leafed pondweed” value in assay [20] is 0 (Herbicidal rate of 5% or less (almost no effect)). In addition, the “F: southern crabgrass, herbicidal effect grade” value in [10] (three weeks after application) is 3 (Herbicidal rate of 40% or more and less than 70%). Further, in assay [11] (three weeks after application), the “P: chickweed, herbicidal effect grade” value is 5 (Herbicidal rate of 90% or more (almost completely withered)). Besides, the “herbicidal effect rating, A: late watergrass” value in assay [12] was 2 (Herbicidal rate of 20% or more and less than 40%). Besides, the “R: persian speedwell, herbicidal effect grade” value in assay [13] (three weeks after application) is on record as 5 (Herbicidal rate of 90% or more (almost completely withered)). Besides, the “O: lambsquarters, herbicidal effect grade” value in assay [14] (three weeks after application) was 2 (Herbicidal rate of 20% or more and less than 40%). In addition, the “H: barnyard grass, herbicidal effect grade” value in assay [16] (three weeks after application) is 3 (Herbicidal rate of 40% or more and less than 70%). Further, the “Herbicidal effect, A: late watergrass” value in assay [21] is 3 (Herbicidal rate of 40% or more and less than 70%). Moreover, the “J: blackgrass, herbicidal effect grade” value in assay [17] (three weeks after application) was 2 (Herbicidal rate of 20% or more and less than 40%). Further, the “Herbicidal effect, B: Japanese bulrush” value in assay [22] is 0 (Herbicidal rate of 5% or less (almost no effect)). Further, in [18] (320 g/ha), the “herbicidal effect on Chinese sprangletop (D)” value is 1 (Herbicidal rate of 5% or more and less than 20%). In [19] (three weeks after application), the “G: green foxtail, herbicidal effect grade” value is 4 (Herbicidal rate of 70% or more and less than 90%).

For the origin of these results see patent US20230085307A1, “PYRIDAZINONE COMPOUND AND HERBICIDE” (NISSAN CHEMICAL CORPORATION, priority 2019, published 2023).
